Results: PubChem BioAssay (NCI)
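48-hour exposure; five concentrations; linearly interpolated endpoints. TGI marks complete inhibition of growth.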

Columns and labels:
Experiment in all cases: NCI anticancer screen, dose series, 48 h
SK-MEL-5 melanoma = tested on: SK-MEL-5 melanoma
HT29 colon = tested on: HT29 colon
RPMI-8226 leukemia = tested on: RPMI-8226 leukemia
K-562 leukemia = tested on: K-562 leukemia
SNB-75 CNS = tested on: SNB-75 CNS
NCI-H23 lung = tested on: NCI-H23 lung
EKVX NSCLC = tested on: EKVX NSCLC
UACC-62 melanoma = tested on: UACC-62 melanoma
OVCAR-3 ovarian = tested on: OVCAR-3 ovarian
RXF 393 renal = tested on: RXF 393 renal
IGROV1 ovarian = tested on: IGROV1 ovarian
UACC-257 melanoma = tested on: UACC-257 melanoma
LOX IMVI melanoma = tested on: LOX IMVI melanoma
ACHN renal = tested on: ACHN renal
HCC-2998 colon = tested on: HCC-2998 colon
U251 CNS = tested on: U251 CNS
M14 melanoma = tested on: M14 melanoma
OVCAR-8 ovarian = tested on: OVCAR-8 ovarian

SMILES | TGI (SK-MEL-5 melanoma) [µM] | TGI (HT29 colon) [µM] | TGI (RPMI-8226 leukemia) [µM] | TGI (K-562 leukemia) [µM] | TGI (SNB-75 CNS) [µM] | TGI (NCI-H23 lung) [µM] | TGI (EKVX NSCLC) [µM] | TGI (UACC-62 melanoma) [µM] | TGI (OVCAR-3 ovarian) [µM] | TGI (RXF 393 renal) [µM] | TGI (IGROV1 ovarian) [µM] | TGI (UACC-257 melanoma) [µM] | TGI (LOX IMVI melanoma) [µM] | TGI (ACHN renal) [µM] | TGI (HCC-2998 colon) [µM] | TGI (U251 CNS) [µM] | TGI (M14 melanoma) [µM] | TGI (OVCAR-8 ovarian) [µM]
CCOC(=O)c1c(C(F)(F)F)oc2c1ccc1nc3nonc3nc12 | 26.7 | 28.9 | > 42.3 | 13.9 | 30 | 18.3 | 33.3 | 29.1 | 30.4 | 16.4 | 55.7 | 27.9 | 31.8 | 29.4 | 47.6 | 29.1 | 21 | 30.4
CO[C@@]12CC(=O)/C(=C(O)\C=C\c3ccccc3)C(=O)[C@]1(OC)Cc1ccccc1O2 | > 100 | > 100 |  | > 100 | > 100 | 61.8 | > 100 | 52.3 | 55.9 | 36.5 | > 100 | > 100 | > 100 | 74.2 | 47 | 59.1 | > 100 | 77.3
COC1=CC(=O)c2ccccc2C1(C)C1=NC(C)(C)CO1 (stereo unspecified) | > 100 | > 100 | > 100 | > 100 | > 100 | > 100 | > 100 | > 100 | > 100 | > 100 | > 100 | > 100 |  | > 100 |  | > 100 | > 100 | > 100
COc1cccc(/C=C2\C(=O)N(C(=O)Cc3ccccc3)N=C2C)c1 | > 100 | > 100 | > 100 | > 100 | > 100 | > 100 | > 100 |  | > 100 |  |  | > 100 | > 100 | > 100 | > 100 | > 100 | > 100 | > 100
COCC12CC(CC1=O)C1C2ON2c3ccccc3C(=O)C12c1ccccc1 (stereo unspecified) | > 100 | > 100 | > 100 | > 100 | > 100 | > 100 | > 100 | > 100 |  | > 100 | > 100 | > 100 |  | > 100 | > 100 | > 100 | > 100 | > 100
C1=c2ccccc2=C2C(=C(c3ccccc3)C(c3ccccc3)=NN2c2ccccc2)S1 | > 100 | > 100 | > 100 | > 100 | > 100 | > 100 | > 100 | > 100 |  | > 100 | > 100 | > 100 | > 100 | > 100 | > 100 | > 100 | > 100 | > 100
COC(=O)C(=O)C1CCCCC(C2=NC3NN=C(N)N3C2=O)C1=O (stereo unspecified) | > 100 | > 100 |  | > 100 | > 100 | > 100 | > 100 | > 100 | > 100 | > 100 | > 100 | > 100 | > 100 | > 100 | > 100 | > 100 | > 100 | > 100
COc1ccc(/C(Cl)=C/c2ccc(Cl)c(Cl)c2)cc1 | 50.3 | 47.5 | 53.9 | > 100 | 99.7 | 63 | 61.8 | > 100 |  | 33.6 | > 100 | 66.2 |  | 91.6 | 43.2 | 50.4 | > 100 | > 100
O=C(/C=C/c1ccc(Cl)c(Cl)c1)C1CCC(Cl)CC1 (stereo unspecified) | 33.4 | 31.7 | 21 |  | 44.3 | 38.8 | 32 | 31.2 | 28.4 | 37.9 | 33.9 | 35.1 | 30.7 | 32 | 32.8 | 28.3 | 33.4 | 38.5
O=C1C=C(Nc2ccccc2C(=O)CC(=O)C(=O)Nc2ccc(Cl)c(Cl)c2)c2ccccc2C1=O | 20.4 | > 100 | > 100 | > 100 |  | > 100 |  | 62.2 | > 100 | > 100 | > 100 | 47.6 |  | > 100 | > 100 | > 100 | > 100 | > 100
Cn1c(N)c(-c2c3ccccc3nc3ccccc23)c(=O)n(C)c1=O | > 100 | > 100 | > 100 | > 100 |  | > 100 | > 100 | > 100 | > 100 | > 100 | > 100 |  |  |  |  | > 100 | > 100 | > 100
O=C(O)Cc1ccc2c(c1O)C(=O)c1c(ccc(CC(=O)O)c1O)C2=O | > 100 | > 100 | > 100 | > 100 | > 100 | > 100 | > 100 |  | > 100 |  | > 100 | > 100 | > 100 | > 100 | > 100 | > 100 | > 100 | > 100
C/C(CN1C(=O)c2ccccc2C1=O)=N\NS(=O)(=O)c1ccc(F)cc1 | > 100 | > 100 | > 100 | > 100 | > 100 | > 100 | > 100 | > 100 | > 100 |  | > 100 | > 100 | > 100 | > 100 | > 100 | > 100 | > 100 | > 100
Cc1cc(=O)[nH]c(CNC(=O)Cc2ccccc2)n1 |  | > 100 | > 100 | > 100 | > 100 | > 100 | > 100 | > 100 | > 100 | > 100 | > 100 | > 100 | > 100 | > 100 | > 100 |  | > 100 | > 100
Nc1ccc(C(=O)NN2C(=O)C(Cl)C2c2cccc([N+](=O)[O-])c2)cc1 (stereo unspecified) | 34.3 | 37.9 | 71.2 | 47.5 | 35.6 | 34.5 | 47.7 | 37.1 | 41.8 |  | 30.8 | 51 | 25.1 | 50.9 | 39.5 | 27.3 | 39.6 | 39.3
CCOC(=O)c1cn2c([nH]c3ccccc32)c(C#N)c1=O | > 100 | > 100 |  | > 100 | > 100 | > 100 | > 100 | > 100 | > 100 | > 100 | > 100 | > 100 | 56.8 | > 100 | > 100 | > 100 | > 100 | > 100
O=C(Nc1cc(Cl)c(Cl)cc1Cl)C(=O)C(C(=O)c1ccc2ccccc2c1)C1OC(=O)c2ccccc21 (stereo unspecified) | 24.4 | 37.3 | > 100 |  |  | 15.2 | 36.6 | 26.9 | 59.5 | 15.1 | 44.7 | 28.7 | 39.8 | 39.9 |  | 17 | 50.7 | 23.6
CCCCCC(=O)Cc1cc(OC)cc2c1C(=O)Oc1cc(O)c(C(=O)O)c(CC(=O)CCCCC)c1O2 | > 100 | > 100 | > 100 | > 100 | > 100 | 37.1 | > 100 | 49.6 | 43.8 |  | > 100 | > 100 | > 100 | > 100 | > 100 | 29.3 | > 100 | > 100
Cc1nc(N)sc1C(=O)/C=C/c1ccc([N+](=O)[O-])cc1 | > 100 | > 100 | > 100 | > 100 | > 100 | > 100 | > 100 | > 100 | > 100 | > 100 | > 100 | > 100 | > 100 |  | > 100 | > 100 |  | > 100
C[N+](C)(Cc1ccc(NC(=O)CCCC(=O)ON2C(=O)CCC2=O)cc1)c1ccccc1 |  | > 100 |  | > 100 | 2.42 | > 100 |  | < 0.01 | > 100 |  |  | < 0.01 | > 100 | > 100 |  | > 100 | > 100 | > 100
CC(C)c1cccc(C(C)C)c1NC1=CC(=O)C(=O)c2ccccc21 | > 100 | > 100 | > 100 | > 100 |  | > 100 | > 100 | > 100 | > 100 | > 100 | > 100 | > 100 | > 100 |  | > 100 | > 100 | > 100 | > 100
COc1ccc(C2S/C(=C\c3cccc(O)c3)C(=O)N2NC(=O)Cc2ccccc2)cc1 (stereo unspecified) | > 100 | > 100 | > 100 | > 100 | > 100 | > 100 |  | > 100 |  | > 100 | > 100 | > 100 | > 100 | > 100 |  | > 100 | > 100 | > 100
